According to the supplement of paper PMC10307832:

Tests used:
Assay in all cases: relative viability (nuclei count vs DMSO), 5 days (fraction); higher = more cells survive
A549 = test system: A549
How it was run: (§1)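 Dosing by pin tool came one day after lung cancer cell lines were seeded in 1536-well plates, using either one drug or a fixed anchor-drug dose plus five library-drug doses (not always all listed) in √10 steps. After 5 days, nuclei were counted on 4× images. Relative viability is treated-well nuclei count divided by vehicle-well nuclei count, and values are medians of duplicate plates.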

Calu-6 = test system: Calu-6
How it was run: as §1

EBC-1 = test system: EBC-1
How it was run: as §1

IA-LM = test system: IA-LM
How it was run: as §1

NCI-H1299 = test system: NCI-H1299
How it was run: as §1

NCI-H1703 = test system: NCI-H1703
How it was run: as §1

NCI-H2023 = test system: NCI-H2023
How it was run: as §1

NCI-H2170 = test system: NCI-H2170
How it was run: as §1

NCI-H520 = test system: NCI-H520
How it was run: as §1

NCI-H727 = test system: NCI-H727
How it was run: as §1

Q: How did the relative viability (A549; first compound 0.001 µM) turn out when `Cc1cn(-c2cc(NC(=O)c3ccc(C)c(Nc4nccc(-c5cccnc5)n4)c3)cc(C(F)(F)F)c2)cn1` [Nilotinib] + CC1(C)CCC(c2ccc(Cl)cc2)=C(CN2CCN(c3ccc(C(=O)NS(=O)(=O)c4ccc(N[C@H](CCN5CCOCC5)CSc5ccccc5)c(S(=O)(=O)C(F)(F)F)c4)cc3)CC2)C1 [Navitoclax] (partner 0.5 µM) was run?
A: 1.2

Q: And the relative viability (A549; first compound 0.003162 µM)?
A: 1.47

Q: What about the relative viability (A549; first compound 0.01 µM) of the same compound?
A: 1.14

Q: What about the relative viability (A549; first compound 0.03162 µM) of the same compound?
A: 0.789

Q: And the relative viability (Calu-6; first compound 0.001 µM)?
A: 0.781

Q: What about the relative viability (Calu-6; first compound 0.003162 µM) of the same compound?
A: 0.845

Q: What about the relative viability (Calu-6; first compound 0.01 µM) of the same compound?
A: 1.05

Q: And the relative viability (Calu-6; first compound 0.03162 µM)?
A: 0.641

Q: What about the relative viability (Calu-6; first compound 0.1 µM) of the same compound?
A: 0.929

Q: And the relative viability (EBC-1; first compound 0.001 µM)?
A: 0.351

Q: And the relative viability (EBC-1; first compound 0.003162 µM)?
A: 0.373

Q: And the relative viability (EBC-1; first compound 0.01 µM)?
A: 0.332

Q: What about the relative viability (EBC-1; first compound 0.03162 µM) of the same compound?
A: 0.289

Q: And the relative viability (EBC-1; first compound 0.1 µM)?
A: 0.186

Q: What about the relative viability (IA-LM; first compound 0.001 µM) of the same compound?
A: 0.499

Q: And the relative viability (IA-LM; first compound 0.003162 µM)?
A: 0.603

Q: And the relative viability (IA-LM; first compound 0.01 µM)?
A: 0.795

Q: And the relative viability (IA-LM; first compound 0.03162 µM)?
A: 0.747

Q: What about the relative viability (IA-LM; first compound 0.1 µM) of the same compound?
A: 0.889

Q: And the relative viability (NCI-H1299; first compound 0.003162 µM)?
A: 1.08

Q: And the relative viability (NCI-H1299; first compound 0.01 µM)?
A: 1.13

Q: And the relative viability (NCI-H1299; first compound 0.03162 µM)?
A: 1.07

Q: And the relative viability (NCI-H1299; first compound 0.1 µM)?
A: 1.03

Q: What about the relative viability (NCI-H1703; first compound 0.001 µM) of the same compound?
A: 1.01

Q: And the relative viability (NCI-H1703; first compound 0.003162 µM)?
A: 0.482

Q: And the relative viability (NCI-H1703; first compound 0.01 µM)?
A: 0.325

Q: What about the relative viability (NCI-H1703; first compound 0.03162 µM) of the same compound?
A: 0.229

Q: What about the relative viability (NCI-H2023; first compound 0.001 µM) of the same compound?
A: 0.914

Q: And the relative viability (NCI-H2023; first compound 0.003162 µM)?
A: 1.13

Q: And the relative viability (NCI-H2023; first compound 0.01 µM)?
A: 1.32

Q: And the relative viability (NCI-H2023; first compound 0.03162 µM)?
A: 1.02

Q: And the relative viability (NCI-H2023; first compound 0.1 µM)?
A: 1.02

Q: What about the relative viability (NCI-H2170; first compound 0.001 µM) of the same compound?
A: 0.483

Q: And the relative viability (NCI-H2170; first compound 0.003162 µM)?
A: 0.64

Q: What about the relative viability (NCI-H2170; first compound 0.01 µM) of the same compound?
A: 0.716

Q: And the relative viability (NCI-H2170; first compound 0.03162 µM)?
A: 0.56

Q: What about the relative viability (NCI-H2170; first compound 0.1 µM) of the same compound?
A: 0.771

Q: What about the relative viability (NCI-H520; first compound 0.001 µM) of the same compound?
A: 1.13

Q: And the relative viability (NCI-H520; first compound 0.01 µM)?
A: 1.11

Q: What about the relative viability (NCI-H520; first compound 0.03162 µM) of the same compound?
A: 0.96

Q: What about the relative viability (NCI-H520; first compound 0.1 µM) of the same compound?
A: 1.15

Q: What about the relative viability (NCI-H727; first compound 0.001 µM) of the same compound?
A: 0.478

Q: And the relative viability (NCI-H727; first compound 0.01 µM)?
A: 0.386

Q: And the relative viability (NCI-H727; first compound 0.03162 µM)?
A: 0.385

Q: What about the relative viability (NCI-H727; first compound 0.1 µM) of the same compound?
A: 0.253

Q: Which results are given for `Cc1cn(-c2cc(NC(=O)c3ccc(C)c(Nc4nccc(-c5cccnc5)n4)c3)cc(C(F)(F)F)c2)cn1` [Nilotinib] + C[C@@H](Oc1cc(-c2cnn(C3CCNCC3)c2)cnc1N)c1c(Cl)ccc(F)c1Cl [Crizotinib] (partner 1 µM)?
A: relative viability (A549; first compound 0.001 µM): 0.916; relative viability (A549; first compound 0.003162 µM): 0.976; relative viability (A549; first compound 0.01 µM): 1.09; relative viability (A549; first compound 0.03162 µM): 0.501; relative viability (A549; first compound 0.1 µM): 0.547; relative viability (Calu-6; first compound 0.001 µM): 0.677; relative viability (Calu-6; first compound 0.003162 µM): 0.798; relative viability (Calu-6; first compound 0.01 µM): 1.19; relative viability (Calu-6; first compound 0.03162 µM): 0.548; relative viability (Calu-6; first compound 0.1 µM): 0.637; relative viability (EBC-1; first compound 0.001 µM): 0.216; relative viability (EBC-1; first compound 0.003162 µM): 0.202; relative viability (EBC-1; first compound 0.01 µM): 0.174; relative viability (EBC-1; first compound 0.03162 µM): 0.157; relative viability (EBC-1; first compound 0.1 µM): 0.164; relative viability (IA-LM; first compound 0.003162 µM): 0.77; relative viability (IA-LM; first compound 0.01 µM): 0.835; relative viability (IA-LM; first compound 0.03162 µM): 0.637; relative viability (IA-LM; first compound 0.1 µM): 0.659; relative viability (NCI-H1299; first compound 0.001 µM): 0.925; relative viability (NCI-H1299; first compound 0.003162 µM): 1.01; relative viability (NCI-H1299; first compound 0.01 µM): 1.07; relative viability (NCI-H1299; first compound 0.03162 µM): 0.918; relative viability (NCI-H1299; first compound 0.1 µM): 0.969; relative viability (NCI-H1703; first compound 0.003162 µM): 0.403; relative viability (NCI-H1703; first compound 0.01 µM): 0.291; relative viability (NCI-H1703; first compound 0.03162 µM): 0.191; relative viability (NCI-H1703; first compound 0.1 µM): 0.175; relative viability (NCI-H2023; first compound 0.001 µM): 0.659; relative viability (NCI-H2023; first compound 0.003162 µM): 0.683; relative viability (NCI-H2023; first compound 0.01 µM): 0.852; relative viability (NCI-H2023; first compound 0.03162 µM): 0.506; relative viability (NCI-H2023; first compound 0.1 µM): 0.569; relative viability (NCI-H2170; first compound 0.001 µM): 1.12; relative viability (NCI-H2170; first compound 0.003162 µM): 1.21; relative viability (NCI-H2170; first compound 0.01 µM): 1.61; relative viability (NCI-H2170; first compound 0.03162 µM): 0.915; relative viability (NCI-H2170; first compound 0.1 µM): 1.19; relative viability (NCI-H520; first compound 0.001 µM): 0.656; relative viability (NCI-H520; first compound 0.01 µM): 0.866; relative viability (NCI-H520; first compound 0.03162 µM): 0.483; relative viability (NCI-H520; first compound 0.1 µM): 0.678; relative viability (NCI-H727; first compound 0.001 µM): 0.865; relative viability (NCI-H727; first compound 0.01 µM): 1.05; relative viability (NCI-H727; first compound 0.03162 µM): 0.575; relative viability (NCI-H727; first compound 0.1 µM): 0.483
